Experimental data taken from paper PMC7594025, “Synthesis, Docking, 3-D-Qsar, and Biological Assays of Novel Indole Derivatives Targeting Serotonin Transporter, Dopamine D2 Receptor, and Mao-A Enzyme: In the Pursuit for Potential Multitarget Directed Ligands” (Molecules, 2020).
Where two headings read alike, the source gives them in different places.

Columns and labels:
[1] = biological target: T1, SERT (Homo sapiens, UniProt P31645); assay: SERT competitive binding assay, [3H]-paroxetine, membranes from HEK-293 clonal cell line overexpressing SERT
T1 construct: purchased Perkin-Elmer (Boston, MA, USA) RBHSTM400UA; host or cells: HEK-293 clonal cell line
T1 sequence (P31645 whole entry): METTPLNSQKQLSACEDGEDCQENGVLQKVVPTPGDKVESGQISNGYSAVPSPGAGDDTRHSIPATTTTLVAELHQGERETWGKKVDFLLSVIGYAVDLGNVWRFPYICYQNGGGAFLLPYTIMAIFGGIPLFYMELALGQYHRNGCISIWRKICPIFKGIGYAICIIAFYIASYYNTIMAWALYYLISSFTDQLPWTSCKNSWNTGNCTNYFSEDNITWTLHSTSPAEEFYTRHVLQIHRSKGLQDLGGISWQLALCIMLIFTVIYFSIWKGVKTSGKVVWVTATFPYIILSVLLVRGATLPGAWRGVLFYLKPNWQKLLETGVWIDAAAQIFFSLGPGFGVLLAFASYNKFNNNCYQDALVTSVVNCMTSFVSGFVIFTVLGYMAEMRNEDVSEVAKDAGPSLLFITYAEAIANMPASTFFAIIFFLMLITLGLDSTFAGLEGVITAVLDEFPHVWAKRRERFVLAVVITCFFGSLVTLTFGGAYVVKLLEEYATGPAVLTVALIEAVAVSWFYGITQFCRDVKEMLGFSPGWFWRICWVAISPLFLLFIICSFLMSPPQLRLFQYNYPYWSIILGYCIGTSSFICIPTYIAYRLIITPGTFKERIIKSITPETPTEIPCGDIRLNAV
Protocol: To determine the binding of all compounds at SERT, competitive binding assays were performed according to previously reported procedures with some modifications. […] Control curve was performed with fluoxetine in the same experimental conditions. Non-specific binding was determined with 10 µM fluoxetine.
The IC50 and Ki values correspond to the results of three independent experiments, each in triplicate. All data are expressed as the mean ± SEM.

[2] = biological target: T2, D2 receptor (Homo sapiens, UniProt P14416); assay: D2 receptor competitive binding assay, [3H]-methylspiperone, membranes from CHO-K1 clonal cell line overexpressing D2 receptor; details: 0.5 nM [3H]-methylspiperone, 2 h at 27 °C; mean ± SEM of three experiments, each in triplicate
T2 construct: purchased Perkin-Elmer (Boston, MA, USA) RBHD2CM400UA; host or cells: CHO-K1 clonal cell line
T2 sequence (P14416 whole entry): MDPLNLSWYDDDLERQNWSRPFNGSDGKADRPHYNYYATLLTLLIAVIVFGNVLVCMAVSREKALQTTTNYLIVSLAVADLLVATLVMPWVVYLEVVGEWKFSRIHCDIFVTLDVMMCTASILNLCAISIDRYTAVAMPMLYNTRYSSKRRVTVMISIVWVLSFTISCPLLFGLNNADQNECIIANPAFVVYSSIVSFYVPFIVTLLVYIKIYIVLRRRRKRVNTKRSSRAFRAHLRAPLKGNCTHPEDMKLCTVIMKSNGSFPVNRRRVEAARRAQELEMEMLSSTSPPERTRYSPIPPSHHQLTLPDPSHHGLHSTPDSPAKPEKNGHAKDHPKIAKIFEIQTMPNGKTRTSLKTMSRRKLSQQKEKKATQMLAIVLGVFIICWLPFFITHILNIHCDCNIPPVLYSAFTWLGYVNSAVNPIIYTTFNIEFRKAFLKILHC
Protocol: To determine the binding of all compounds at D2 receptor, competitive binding assays were performed according to provider indications with some modifications. […] Radioactivity was counted as described before.

[3] = biological target: T3, rat MAO-A (Rattus norvegicus, UniProt P21396); assay: MAO-A inhibition, crude rat brain mitochondrial suspension, serotonin substrate, HPLC-ED; assay type: biochemical; details: 100 µM compound; serotonin 100 µM as substrate
T3 construct: using a crude rat brain mitochondrial suspension as a source of enzyme; from tissue; host or cells: rat brain (crude mitochondrial suspension)
T3 sequence (P21396 1-526): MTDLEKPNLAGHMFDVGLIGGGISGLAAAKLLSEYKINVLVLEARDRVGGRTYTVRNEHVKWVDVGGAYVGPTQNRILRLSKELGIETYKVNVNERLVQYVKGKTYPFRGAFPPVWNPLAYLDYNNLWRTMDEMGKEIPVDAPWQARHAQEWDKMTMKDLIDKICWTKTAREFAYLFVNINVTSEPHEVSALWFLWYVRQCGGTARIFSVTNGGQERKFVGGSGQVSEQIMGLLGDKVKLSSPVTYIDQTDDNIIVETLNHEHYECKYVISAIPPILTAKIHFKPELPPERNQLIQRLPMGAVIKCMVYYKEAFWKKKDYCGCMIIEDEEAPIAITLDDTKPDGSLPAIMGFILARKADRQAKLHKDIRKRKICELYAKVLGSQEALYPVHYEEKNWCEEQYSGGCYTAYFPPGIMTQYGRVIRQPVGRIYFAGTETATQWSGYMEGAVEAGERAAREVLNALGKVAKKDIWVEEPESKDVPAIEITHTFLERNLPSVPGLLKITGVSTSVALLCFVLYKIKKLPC
Protocol: The effects of the compounds on rat MAO-A activity were studied following a previously reported methodology, using a crude rat brain mitochondrial suspension as a source of enzyme. Serotonin (100 µM) was used as the selective substrate for MAO-A. This compound and its metabolite were detected by HPLC with electrochemical detection. As an exploratory evaluation, the percentage of MAO-A inhibition in the presence of 100 µM of the different compounds was determined, with the idea of evaluating in detail those compounds showing an inhibitory activity in the range of 70–100%.

[4] = 2 nM [3H]-paroxetine, 1 h at 27 °C, mean ± SEM of three experiments, each in triplicate, read-out: Ki SERT

Ki ([1]; SERT, experimental values used for CoMFA/CoMSIA (Table S3), read-out: Exp. pKi (converted)) | Ki [2] | inhibition at 100 µM [3] | melting point | Ki [1, 4] | SMILES
34.9 nM | 1150 ± 227 nM | 26% | 97.2 to 98.8 °C | – | O=C(CN1CCN(CCCc2c[nH]c3ccc(Br)cc23)CC1)N1CCOc2ccc(F)cc21 [Compound 7o, 1-(6-Fluoro-2,3-dihydro-benzo[b][1,4]oxazin-4-yl)-2-{4-[3-(5-bromo-1H-3-indolyl)-propyl]-1-piperazinyl} ethanamide]
– | 765 ± 16 nM | 16% | 73.2 to 74.5 °C | 12.6 ± 0.42 nM | O=C(CN1CCN(CCCc2c[nH]c3ccc(Br)cc23)CC1)Nc1ccc(F)c(C(=O)NCCN2CCOCC2)c1 [Compound 13g, 2-Fluoro-5-(2-{4-[3-(5-bromo-1H-3-indolyl)-propyl]-1-piperazinyl}-acetylamino)-N-(2-morpholin-4-yl-ethyl) Benzamide]
– | 1680 ± 79 nM | 0% | 166.8 to 168.1 °C | 7.51 ± 0.12 nM | O=C(CN1CCN(CCCc2c[nH]c3ccc(F)cc23)CC1)N1CCOc2ccc(F)cc21 [Compound 7i, 1-(6-Fluoro-2,3-dihydro-benzo[b][1,4]oxazin-4-yl)-2-{4-[3-(5-fluoro-1H-3-indolyl)-propyl]-1-piperazinyl} ethanamide]
– | 4840 ± 68 nM | 27% | 124.3 to 125.8 °C | 307 ± 30.5 nM | O=C(CN1CCN(CCCc2c[nH]c3ccccc23)CC1)N1CCOc2ccccc21 [Compound 7a, 1-(2,3-Dihydro-benzo[b][1,4]oxazin-4-yl)-2-{4-[3-(1H-3-indolyl)-propyl]-1-piperazinyl} ethanamide]
